Source: patent publication US10561624B2, “Methods and materials for the treatment of testosterone deficiency in men” (REPROS THERAPEUTICS INC., priority 2001, dated 2020)
Where “and” joins values, the source holds several entries; their conditions need not be identical. Equal values may be shown once. Entries after “also recorded” stand apart in the source; their conditions may differ. Where a name gives a salt, the structure may show the parent alone.

Key:
[1] = tested on: Adult, male, Baboons; assay: Effects on clinical chemistry parameters in male baboons; assay type: in vivo; conditions: for serum glucose: changes within the normal range; for anionic gap: day 12 of treatment and 7 days after treatment (washout); for Alkaline phosphatase (ALP): following treatment; for serum cholesterol: not statistically significant, within the normal range
Source text: (§1) The samples analyzed were sera taken on the day of first treatment before being given test article (day 0), after 12 days of treatment (day 12) and 7 days after the last treatment (end or wash-out).

[2] = tested on: men; conditions: cited from earlier work
[3] = tested on: Adult, male, Baboons; assay: Effects of Clomids on serum testosterone in male baboons; conditions: for Serum Testosterone Levels, 6 days, mean / Serum Testosterone Levels, 12 days, mean / Serum Testosterone Levels, wash-out, mean / Serum Testosterone Levels, baseline, mean / Serum Testosterone Levels, 0 day, mean: group mean of 3 baboons; for Serum Testosterone Levels, 6 days, mean / Serum Testosterone Levels, 6 days: 1.5 mg/kg daily, day 6; for Serum Testosterone Levels, 12 days, mean: 1.5 mg/kg for 12 days; for Serum Testosterone Levels, 12 days, mean / Serum Testosterone Levels, 12 days: day 12; for Serum Testosterone Levels, wash-out, mean / Serum Testosterone Levels, wash-out: 7 days after the last treatment; for Serum Testosterone Levels, baseline, mean: before treatment; for Serum Testosterone Levels, 0 day, mean / Serum Testosterone Levels, 0 day: day 0, before first dose; for Serum Testosterone Levels, 6 days / Serum Testosterone Levels, 12 days / Serum Testosterone Levels, wash-out / Serum Testosterone Levels, baseline / Serum Testosterone Levels, 0 day: individual baboon; for Serum Testosterone Levels, 6 days / Serum Testosterone Levels, 12 days: 1.5 mg/kg; for Serum Testosterone Levels, 12 days / effect on total serum testosterone: 1.5 mg/kg for 12 consecutive days; for Serum Testosterone Levels, baseline: baseline Dec. 3, 2001, before treatment; for effect on total serum testosterone: male baboons
Source text: as §1

[4] = tested on: Adult, male, Baboons; assay: Effects on body weight and serum LH, FSH, PRL in male baboons; assay type: in vivo; conditions: during the study
Source text: as §1

[5] = Ernst et al.; cited from earlier work
[6] = cited from earlier work

Structure (SMILES) | serum glucose [1] | anionic gap [1] | Serum Testosterone Levels, 6 days, mean [3] [ng/dL] | Serum Testosterone Levels, 12 days, mean [3] [ng/dL] | Serum Testosterone Levels, wash-out, mean [3] [ng/dL] | Serum Testosterone Levels, baseline, mean [3] [ng/dL] | Serum Testosterone Levels, 0 day, mean [3] [ng/dL] | Alkaline phosphatase (ALP) [1] | red blood cell population ([1]; in vivo) | serum cholesterol [1] | estrogenic / antiestrogenic activity [5] | effect on total serum testosterone [3] | Serum Testosterone Levels, 6 days [3] | Serum Testosterone Levels, 12 days [3] | Serum Testosterone Levels, wash-out [3] | Serum Testosterone Levels, baseline [3] | Serum Testosterone Levels, 0 day [3] | further results
CCN(CC)CCOc1ccc(C(=C(Cl)c2ccccc2)c2ccccc2)cc1 [Clomid, clomiphene citrate] | increase | lower values than the Enclomid group | 559.3 | 588.7 | 203.6 | 111.5 | 161.4 |  |  |  |  |  |  |  |  |  |  | LH, FSH, and testosterone after 2 months ([2]; Guay et al. 1995, 2 months): increase in LH, FSH, and testosterone; erectile dysfunction ([2]; Guay et al. 1995, 2 months): no effects on erectile dysfunction; FSH, LH in young and old men ([2]; Tenover et al. 1987): increased in FSH, LH; free and total testosterone in men ([2]; Tenover et al. 1987): increases in free and total testosterone; semen quality or fertility ([2]; WHO study, 6 months of treatment): no changes in semen quality or fertility; side effects ([2]; approved cis/trans mixture): blurred vision, abdominal discomfort, gynecomastia, testicular tumors, vasomotor flushes, nausea, and headaches; genotoxicity and tumor enhancement ([2]; other studies): genotoxic and tumor enhancement effects; variability of total testosterone levels (coefficients of variations) ([3]; day 6 and later, compared to animals receiving Enclomid): more variable total testosterone levels; Serum Testosterone Levels, 6 days ([3]; listed as CLO): 940.97 ng/dL and 585.92 ng/dL and 151.12 ng/dL; Serum Testosterone Levels, 12 days ([3]; listed as CLO): 891.5 ng/dL and 555.6 ng/dL and 318.9 ng/dL; Serum Testosterone Levels, wash-out ([3]; listed as CLO): 150.9 ng/dL and 316.3 ng/dL and 143.6 ng/dL; Serum Testosterone Levels, baseline ([3]; listed as CLO): 79.01 ng/dL and 97.55 ng/dL and 158.06 ng/dL; Serum Testosterone Levels, 0 day ([3]; listed as CLO): 76.15 ng/dL and 305.24 ng/dL and 102.94 ng/dL
CCN(CC)CCOc1ccc(/C(=C(\Cl)c2ccccc2)c2ccccc2)cc1 [Enclomid, trans-clomiphene] | no increases with treatment | raised this parameter towards normal values | 1144.4 | 1088.5 | 325.8 | 134.0 | 105.0 | decreased in value | substantive effects | tended to decrease | antiestrogenic | significant increases in total serum testosterone; also recorded: more effective than Clomid or Zuclomid | 1223.8 ng/dL and 1128.2 ng/dL and 1081.1 ng/dL | 633.6 ng/dL and 1466 ng/dL and 1166 ng/dL | 307.2 ng/dL and 399.2 ng/dL and 271 ng/dL | 64.57 ng/dL and 166.86 ng/dL and 170.45 ng/dL | 74.96 ng/dL and 133.59 ng/dL and 106.47 ng/dL | serum prolactin (PRL) [4]: decrease; platelets ([1]; 12-day treatment, values stayed within the normal range): clear effect; serum creatinine ([1]; between day 0 and Day 12): no differences; counts of lymphocytes and eosinophiles ([1]; in vivo): raising the counts; count and percent lymphocytes ([1]; mean percent remains in the normal range): increase; percent of granulocytes in the blood ([1]; very strong after the 7-day washout, below the normal range): strong effect; change of total serum testosterone after cessation of treatment ([3]; between day 12 and day 18 (washout)): significant drop; total serum testosterone on days 6 and 12 compared with baseline or day 0 (FIG. 3 time course) ([3]; days 6 and 12 vs baseline or day 0): significantly and statistically raised total serum testosterone; clearance from the circulation ([3]; inferred from testosterone drop after cessation): readily cleared from the circulation
CCN(CC)CCOc1ccc(/C(=C(/Cl)c2ccccc2)c2ccccc2)cc1 [Zuclomid, cis-clomiphene] | increase | lower values than the Enclomid group | 178.5 | 357.9 | 498.1 | 170.6 | 394.2 | not elevated | substantive effects | tended to increase | more potent and more estrogenic | did not raise total serum testosterone to any extent; also recorded: not effective | 137.51 ng/dL and 169.98 ng/dL and 227.95 ng/dL | 314.5 ng/dL and 406.1 ng/dL and 353.0 ng/dL | 359.7 ng/dL and 860.5 ng/dL and 274.1 ng/dL | 124.84 ng/dL and 104.66 ng/dL and 282.29 ng/dL | 210.4 ng/dL and 67.37 ng/dL and 904.82 ng/dL | AST ([1]; in vivo): lowering; hematocrit ([1]; in vivo): substantive effects; half-life ([6]; relative to the other isomer in Clomid): longer half-life; residual blood levels following a single dose ([6]; reported in literature): in excess of one month
